{
  "source": "patent US20110142961A1",
  "about": "“METHODS AND REAGENTS FOR PREDICTING CLINICAL OUTCOME AND CUSTOMIZING CHEMOTHERAPY IN LUNG CANCER PATIENTS” (Pangaea Biotech S.A., priority 2008, published 2011)",
  "test_system": "metastatic NSCLC (patients with lung adenocarcinoma or large-cell carcinoma)",
  "assay": "Customized treatment of metastatic NSCLC according to EGFR mutations and BRCA1 mRNA levels: survival",
  "assay_type": "in vivo",
  "conditions": "median follow-up of 10 months",
  "description": "Background: A study was carried out wherein treatment of metastatic NSCLC was customized according to the presence of EGFR mutations and BRCA1 mRNA levels.\nMethods: 93 patients with lung adenocarcinoma or large-cell carcinoma were screened for EGFR Δ746-750 deletion and L858R mutation and BRCA1 mRNA expression. 15 patients with the L858R mutation in the EGFR gene received erlotinib; 78 patients without the L858R mutation in the EGFR gene received chemotherapy according to BRCA1 levels (low: gemcitabine/cisplatin; intermediate: docetaxel/cisplatin; high: docetaxel alone). In addition, Abraxas and RAP80 mRNA expression were examined in 60/78 patients without the L858R mutation. The features of the patients are collected in Tables I and II.",
  "data": [
    {"molecule": "C#Cc1cccc(Nc2ncnc3cc(OCCOC)c(OCCOC)cc23)c1", "note": "[erlotinib]", "values": [
      {"measurement": "median survival", "setting": "11 patients with EGFR mutations (received erlotinib)", "value": "not reached"}
    ]},
    {"molecule": "docetaxel/cisplatin", "values": [
      {"measurement": "median survival", "setting": "34 patients with intermediate BRCA1 levels (received docetaxel/cisplatin)", "value": 9, "unit": "months"}
    ]},
    {"molecule": "CC(=O)O[C@@]12CO[C@@H]1C[C@H](O)[C@@]1(C)C(=O)[C@H](O)C3=C(C)[C@@H](OC(=O)[C@H](O)[C@@H](NC(=O)OC(C)(C)C)c4ccccc4)C[C@@](O)([C@@H](OC(=O)c4ccccc4)[C@H]21)C3(C)C", "note": "[docetaxel]", "values": [
      {"measurement": "median survival", "setting": "12 patients with high BRCA1 levels (received docetaxel alone)", "value": 11, "unit": "months"}
    ]},
    {"molecule": "gemcitabine/cisplatin", "values": [
      {"measurement": "median survival", "setting": "32 patients with low BRCA1 levels (received gemcitabine/cisplatin)", "value": "not reached"}
    ]}
  ]
}
